# Experimental data taken from article PMC5447464 (Gastroenterology, 2017).
# Where two headings read alike, the source gives them in different places.
# Assays:
# HepG2 = test: Viability of HCC cell line HepG2; type: cell-based, human
# Huh7 = test: Viability of HCC cell line Huh7; type: cell-based, human
# Hep3B = test: Viability of HCC cell line Hep3B; type: cell-based, human
# Hep40 = test: Viability of HCC cell line Hep40; type: cell-based, human; conditions: read-out: IC50 in HCC cell lines, Hep40
# PLC/PRF/5 = test: Viability of HCC cell line PLC/PRF/5; type: cell-based, human
# SNU-398 = test: Viability of HCC cell line SNU-398; type: cell-based, human
# SNU-449 = test: Viability of HCC cell line SNU-449; type: cell-based, human
# SNU-182 = test: Viability of HCC cell line SNU-182; type: cell-based, human
# SNU-475 = test: Viability of HCC cell line SNU-475; type: cell-based, human
# SNU-423 = test: Viability of HCC cell line SNU-423; type: cell-based, human
# [1] = test system: control shRNA and CDC37 shRNA stable transfected HepG2; test: Cell viability of control shRNA and CDC37 shRNA HepG2; type: cell-based, human; conditions: 6 days of treatment
# [2] = test system: control shRNA and CDC37 shRNA stable transfected Huh7; test: Cell viability of control shRNA and CDC37 shRNA Huh7; type: cell-based, human; conditions: 6 days of treatment
# [3] = test system: control shRNA and CDC37 shRNA stable transfected Hep3B; test: Cell viability of control shRNA and CDC37 shRNA Hep3B; type: cell-based, human; conditions: 6 days of treatment
# HepG2 and Huh7 cells [4] = test: In vitro anti-proliferation assay combined with sorafenib; type: cell-based, human; conditions: added at its IC30 or IC50 to a range of sorafenib concentrations
# [5] = test system: genetically induced liver tumors; test: Primary HCC mouse model; type: in vivo; conditions: 1500 p.p.m in food, 12 weeks; for number of tumor nodules in the livers: vs control food
# [6] = test system: orthotopic PDX from HCC patients (HCC-1, HCC-2, HCC-3); test: Orthotopic HCC PDX models, drug in food; type: in vivo, mouse; conditions: for PDX tumor growth (bioluminescence signals and tumor volumes): 1,500 p.p.m mixed in food, oral, vs regular chow
# HSP90/CDC37 complex = HSP90/CDC37 complex (Homo sapiens, UniProt Q16543); type: biochemical; conditions: purified recombinant HSP90 and CDC37, ELISA and co-IP
# CDC37 [7] = target: T1, CDC37 (Homo sapiens, UniProt Q16543); test: Thermal Shift Assay; type: binding; conditions: DMSO control 52.3 °C
# T1 sequence (Q16543 1-378): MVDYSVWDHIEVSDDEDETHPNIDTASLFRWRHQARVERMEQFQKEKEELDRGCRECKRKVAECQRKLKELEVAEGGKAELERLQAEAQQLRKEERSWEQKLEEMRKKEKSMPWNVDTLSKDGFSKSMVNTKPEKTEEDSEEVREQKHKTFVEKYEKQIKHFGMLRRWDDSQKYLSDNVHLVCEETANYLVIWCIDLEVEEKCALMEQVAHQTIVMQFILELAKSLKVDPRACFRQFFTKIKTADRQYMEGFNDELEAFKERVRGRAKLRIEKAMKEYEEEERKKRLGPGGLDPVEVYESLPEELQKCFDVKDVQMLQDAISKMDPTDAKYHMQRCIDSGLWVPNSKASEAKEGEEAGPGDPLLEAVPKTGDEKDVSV
# [8] = test system: HSP70 and HSP27 expression; test: Western blot for heat shock response; type: cell-based; conditions: treated cell lines
# [9] = test system: Wnt/β-catenin, Stat3, AKT/mTOR, and EGFR/Ras/Raf pathway proteins; test: Western blotting of signaling proteins in PDX; type: in vivo, mouse; conditions: NEN 1,500 p.p.m in food
# [10] = single oral dose 40 mg/Kg, mice bearing PDX, compared with niclosamide
# [11] = cited from earlier work
# [12] = cited from earlier work; remark: listed apart in the source
# HepG2 and Huh7 cells [13] = type: cell-based, human; conditions: read-out: IC50, proliferation of HepG2 and Huh7 cells
# [14] = test system: primary hepatocytes Hu8216; test: Viability of primary hepatocytes Hu8216; type: cell-based; conditions: Homo sapiens, Hepatocyte, read-out: IC50 in primary hepatocytes, Hu8216
# [15] = test system: primary hepatocytes Hu1748; test: Viability of primary hepatocytes Hu1748; type: cell-based; conditions: Homo sapiens, Hepatocyte, read-out: IC50 in primary hepatocytes, Hu1748
# PDX-HCC-2 = test: PDX; type: in vivo, mouse; conditions: PDX HCC-2, sorafenib 50 mg/Kg, NEN 200 mg/Kg or niclosamide 400 mg/Kg, daily oral gavage, four weeks
# CDC37 [16] = target: T1, CDC37; test: Pull-down assay with niclosamide-conjugated sepharose beads; type: binding; conditions: niclosamide conjugated to epoxy-activated sepharose beads
compound,measurement,setting,value
"NCCO.O=C(Nc1ccc([N+](=O)[O-])cc1Cl)c1cc(Cl)ccc1O [NEN, niclosamide ethanolamine]","IC30, HepG2",HepG2; HepG2,400 nM
same,IC50,"HepG2; read-out: IC50 in HCC cell lines, HepG2, viability, HepG2",460 nM
same,"IC30, Huh7",Huh7; Huh7,500 nM
same,IC50,"Huh7; read-out: IC50 in HCC cell lines, Huh7, viability, Huh7",630 nM
same,IC50,"Hep3B; read-out: IC50 in HCC cell lines, Hep3B, viability",170 nM
same,IC50,"Hep40; viability, Hep40",740 nM
same,IC50,"PLC/PRF/5; read-out: IC50 in HCC cell lines, PLC/PRF/5, viability, PLC/PRF/5",530 nM
same,IC50,"SNU-398; read-out: IC50 in HCC cell lines, SNU-398, viability, SNU-398",200 nM
same,IC50,"SNU-449; read-out: IC50 in HCC cell lines, SNU-449, viability, SNU-449",530 nM
same,IC50,"SNU-182; read-out: IC50 in HCC cell lines, SNU-182, viability, SNU-182",340 nM
same,IC50,"SNU-475; read-out: IC50 in HCC cell lines, SNU-475, viability, SNU-475",350 nM
same,IC50,"SNU-423; read-out: IC50 in HCC cell lines, SNU-423, viability, SNU-423",260 nM
same,IC50,"[1]; read-out: IC50, CDC37 knockdown HepG2, CDC37 shRNA",610 nM
same,IC50,"[1]; read-out: IC50, mock transfected (control shRNA) HepG2, control shRNA",350 nM
same,IC50,"[2]; read-out: IC50, CDC37 knockdown Huh7, CDC37 shRNA",930 nM
same,IC50,"[2]; read-out: IC50, mock transfected (control shRNA) Huh7, control shRNA",610 nM
same,IC50,"[3]; read-out: IC50, CDC37 knockdown Hep3B, CDC37 shRNA",520 nM
same,IC50,"[3]; read-out: IC50, mock transfected (control shRNA) Hep3B, control shRNA",160 nM
same,effect on IC50 of sorafenib in HCC cells,HepG2 and Huh7 cells [4],reduced their IC50 values to sorafenib
same,weight of whole livers (liver plus tumor nodules),[5]; vs control and niclosamide groups,significantly reduced liver weight
same,number of tumor nodules in the livers,[5],visibly reduced the number of tumor nodules
same,PDX tumor growth (bioluminescence signals and tumor volumes),[6],significantly decreased PDX growth
same,body weight changes,"[6]; end of treatment period, treated vs control groups",no significant body weight changes
same,effect on HSP90/CDC37 interaction,HSP90/CDC37 complex,inhibited the HSP90/CDC37 interaction
same,average Tm value of CDC37,CDC37 [7]; 25 μM,54.97 °C
same,average Tm value of CDC37,CDC37 [7]; 50 μM,56.03 °C
same,heat shock response (HSP70 and HSP27 induction),[8],did not induce the classical heat shock response
same,expression levels of signaling pathway proteins,[9],decreased expression levels of proteins involved in multiple signaling pathways
same,plasma levels,[10],similarly higher
same,water solubility,[11],improved water solubility
same,systemic bioavailability,[12],improved water solubility and systemic bioavailability over niclosamide
NCCO [ethanolamine],average Tm value of CDC37,CDC37 [7]; 25 μM,52.93 °C
same,average Tm value of CDC37,CDC37 [7]; 50 μM,53.2 °C
COC(=O)Nc1nc2ccc(C(=O)c3ccccc3)cc2[nH]1 [mebendazole],IC50,HepG2 and Huh7 cells [13]; Homo sapiens,380 to 1650 nM
O=C(Nc1ccc([N+](=O)[O-])cc1Cl)c1cc(Cl)ccc1O [niclosamide],IC50,"HepG2; Homo sapiens, HepG2, read-out: IC50 in HCC cell lines, HepG2",850 nM
same,IC50,"Huh7; Homo sapiens, Huh-7, read-out: IC50 in HCC cell lines, Huh7",740 nM
same,IC50,"Hep3B; Homo sapiens, read-out: IC50 in HCC cell lines, Hep3B",200 nM
same,IC50,Hep40; Homo sapiens,810 nM
same,IC50,"PLC/PRF/5; Homo sapiens, PLC-PRF-5, read-out: IC50 in HCC cell lines, PLC/PRF/5",770 nM
same,IC50,"SNU-398; Homo sapiens, SNU-398, read-out: IC50 in HCC cell lines, SNU-398",240 nM
same,IC50,"SNU-449; Homo sapiens, SNU-449, read-out: IC50 in HCC cell lines, SNU-449",670 nM
same,IC50,"SNU-182; Homo sapiens, SNU-182, read-out: IC50 in HCC cell lines, SNU-182",360 nM
same,IC50,"SNU-475; Homo sapiens, SNU-475, read-out: IC50 in HCC cell lines, SNU-475",400 nM
same,IC50,"SNU-423; Homo sapiens, SNU-423, read-out: IC50 in HCC cell lines, SNU-423",320 nM
same,IC50,[14],4310 nM
same,IC50,[15],3640 nM
same,IC50,HepG2 and Huh7 cells [13]; Homo sapiens,650 to 1770 nM
same,number of tumor nodules in the livers,[5],much lesser effect than NEN
same,PDX tumor growth (bioluminescence signals and tumor volumes),[6],did not produce any significant effects on tumor growth
same,tumor volume,PDX-HCC-2,did not decrease tumor volume
same,pull-down of CDC37,CDC37 [16],pulled down CDC37
same,systemic bioavailability,[12]; in vivo,very limited systemic bioavailability
ivermectin,IC50,"HepG2 and Huh7 cells [13]; range over HepG2 and Huh7, Supplemental Figure 8",> 10000 nM
